Key:
CB1 receptor = target: T1, CB1 receptor (Homo sapiens, UniProt P21554); experiment: Competitive [3H]CP55,940 radioligand binding, membrane from CB1 expressing HEK293 cells; details: for Ki CB1 (CP55,940): competition with [3H]CP55,940, N.B. = no specific binding detected up to 10 μM of test compounds; for CB1 receptor binding: not bound up to: test compound 1 nM to 10 μM
T1 construct: expressed in transfected cells; host or cells: HEK293T cells (called 'HEK293 cells' in Results), calcium phosphate transfection, membrane preparation
T1 sequence (P21554 whole entry): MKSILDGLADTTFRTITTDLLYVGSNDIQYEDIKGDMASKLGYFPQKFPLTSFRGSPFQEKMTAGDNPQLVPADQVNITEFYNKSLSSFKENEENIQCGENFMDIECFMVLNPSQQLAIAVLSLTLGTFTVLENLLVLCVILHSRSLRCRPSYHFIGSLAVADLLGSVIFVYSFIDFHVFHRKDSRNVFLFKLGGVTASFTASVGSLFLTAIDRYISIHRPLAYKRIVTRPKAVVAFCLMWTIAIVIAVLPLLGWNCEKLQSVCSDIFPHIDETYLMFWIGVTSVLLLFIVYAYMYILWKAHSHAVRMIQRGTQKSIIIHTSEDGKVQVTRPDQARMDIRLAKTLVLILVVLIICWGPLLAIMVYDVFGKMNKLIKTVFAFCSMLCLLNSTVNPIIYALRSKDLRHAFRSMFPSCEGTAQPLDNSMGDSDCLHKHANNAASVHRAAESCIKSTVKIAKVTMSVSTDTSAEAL
Text: To evaluate binding affinity of ABK5 analogs that have a difference in the position of substituents in the N-phenyl ring (Figure 1), we performed competitive radiolabeled ligand binding assays using cell membrane from HEK293T cells transfected with human CB2 receptors. […] ABK5-1, ABK5-2, and ABK5-6 dose-dependently competed with [^3H]CP55,940 and decreased the specific binding of the radiolabeled agonist, which reflects the binding of test compounds to CB2. […] Therefore, ABK5-5 was not considered for further evaluation in this study. […] We also examined CB2 selectivity (versus CB1) of the three compounds by performing similar binding assays using membrane from CB1 expressing HEK293 cells instead of CB2 expressing cells. […] Therefore, ABK5-1 and 5-2 maintained the CB2 subtype selectivity of ABK5.
In the experiment, 1 × 10^6 HEK293T cells were seeded in a 10-cm cell culture dish and cultured for 24 h. Cells were transfected with CB1 or CB2 using the calcium phosphate method. Approximately one day after transfection, cells were harvested and centrifuged at 4 °C for 5 min at 500× g. The pellet was washed with phosphate buffered saline (PBS) twice and resuspended in PBS containing 1% protease-inhibitor cocktail (Sigma-Aldrich, St. Louis, MO, USA) consisting of 104 mM 4-(2-aminoethyl) benzene sulfonyl fluoride hydrochloride (AEBSF), 80 μM apronitin, 4 mM bestatin, 1.64 mM E-64, 2 mM leupeptin, 1.5 mM pepstatin A. Then the cells were subjected to nitrogen cavitation under 750 psi for 5 min using a Parr cell disruption bomb. The lysate was centrifuged at 500× g for 10 min at 4 °C and the supernatant was spun at 116,000× g for 45 min at 4 °C. The pellet, consisting of the cell membrane expressing CB1 or CB2, was resuspended in TME buffer solution (25 mM Tris-HCl, 5 mM MgCl2, and 1 mM EDTA, pH 7.4) with 7% (w/v) sucrose/TME buffer. The concentration of the membrane protein was determined by the Bradford assay (Bradford, 1976).
Membrane protein was mixed with 1 nM to 10 μM of the test compounds and 1 nM [^3H]CP55,940 (164.9 Ci/mmol; PerkinElmer life Sciences, Waltham, MA, USA), and TME buffer supplemented with 0.2% BSA was used to bring the total volume to 200 μL. [^3H]CP55,940 acts as tracer and agonists that bind the target receptor compete with [^3H]CP55,940. Samples were incubated for 1 h at 30 °C. Ten μM unlabeled CP55,940 was used to determine non-specific binding. Reactions were stopped by adding 5% BSA/TME buffer (w/v) and samples were filtered through a Brandel cell harvester using Whatman GF/C filter paper. Ultima Gold XR liquid scintillation cocktail (PerkinElmer Life Sciences, Waltham, MA, USA) was then added and vortexed. A Beckman Coulter 6500 liquid scintillation counter was used to measure the radioactivity of the samples.
Results are presented as the mean ± standard deviation (S.D.). The ligand binding assays and the GTPγS binding assays were both carried out in duplicate for three independent experiments. The Ki values in the ligand binding assay were calculated using the Prism software (GraphPad Software Inc., San Diego, CA, USA), using IC50 values obtained from non-linear regression fitted to the one-site binding model. The Cheng-Prusoff equation [48], which is used for calculation of Ki value is shown below. (1) Ki=IC50/1+L/Kd

[1] = test system: IL-1β production in BV-2 cells; experiment: LPS-induced IL-1β protein in BV-2 culture medium; assay type: cell-based, murine; details: 10 μM
Description: (§1) We stimulated BV-2 by lipopolysaccharide (LPS) and confirmed induction of pro-inflammatory cytokine IL-1β and IL-6 (data not shown). […] These effects were also confirmed by cytokine protein levels.
(§2) Figure 6 Effect of ABK5-1 on lipopolysaccharide (LPS)-induced cytokine production in microglia. BV-2 cells were pretreated with DMSO (<0.1%) or 1 or 10 μM ABK5-1 and stimulated with LPS. (A) mRNA levels of IL-1β and IL-6 after 6 h of LPS stimulation. (B) IL-1β protein concentration in the cell culture medium after 24 h of LPS stimulation. U.D. indicates under detection limit. (C) IL-6 protein concentration in the cell culture medium after 24 h of LPS stimulation. (D) Viability of BV-2 cells after ABK5-1 10 μM treatment. Results are indicated as the mean ± S.D. of three independent assays performed for each concentration. One-way ANOVA plus Dunnett’s post-hoc test were used and **** p < 0.0001 (versus reference). TEXT PRINTED IN THE PICTURE: (B) ABK5-1: IL-1β (pg/mL): U.D. (10 μM; LPS +)

[2] = test system: IL-6 production in BV-2 cells; experiment: LPS-induced IL-6 protein in BV-2 culture medium; assay type: cell-based, murine; details: 10 μM, 24 h LPS stimulation
Description: as §1, §2

IL-1β mRNA in BV-2 cells = experiment: LPS-induced IL-1β mRNA in BV-2 cells; assay type: cell-based, murine; details: 10 μM, 6 h LPS stimulation
Description: as §1, §2

IL-6 mRNA in BV-2 cells = experiment: LPS-induced IL-6 mRNA in BV-2 cells; assay type: cell-based, murine; details: 10 μM, 6 h LPS stimulation
Description: as §1, §2

Compound: CCOC(=O)c1ccccc1NC(=O)CN(c1ccc(C)cc1C)S(=O)(=O)c1ccccc1 [ABK5-1]
- Ki CB1 (CP55,940) (CB1 receptor): N.B. ^c
- CB1 receptor binding: not bound up to (CB1 receptor): > 10 µM
- IL-1β cytokine concentration in the culture medium (in words) ([1]; 24 h LPS stimulation): under the detection limit
- IL-1β ([1]; LPS +, 24 h, U.D. = under detection limit): U.D.
- decrease of IL-6 cytokine concentration in the culture medium [2]: 47%
- decrease of IL-1β mRNA (IL-1β mRNA in BV-2 cells): 63%
- decrease of IL-6 mRNA (IL-6 mRNA in BV-2 cells): 48%

Compound: CCOC(=O)c1ccccc1NC(=O)CN(c1c(C)cccc1C)S(=O)(=O)c1ccccc1 [ABK5-2]
- Ki CB1 (CP55,940) (CB1 receptor): N.B. ^c
- CB1 receptor binding: not bound up to (CB1 receptor): > 10 µM

Reference: PMC8073686, “Characterization of Subtype Selective Cannabinoid CB2 Receptor Agonists as Potential Anti-Inflammatory Agents” (Pharmaceuticals, 2021)
